From patent EP0007205A1, “Optically active phenethanolamines, their formulations, use and preparation” (ELI LILLY AND COMPANY, priority 1978, dated 1980)
Read-outs that look alike come from different tables or passages of the source.

Tests used:
[1] = tested on: dogs; test: Inotropic potency in anesthetized dogs and conscious dogs with implanted cardiovascular transducers; type: in vivo; conditions: for ED50: read-out: Cardiac Contractile Potency mcg/kg ED50; for Blood Pressure Change mm/hg at ED50 / Heart rate Change beats/min. at ED50: at the contractile ED50
Method: The heart rate, arterial pressure, cardiac output, and the derivative of left ventricular pressure (which is the index of cardiac contractility), were measured.

[2] = tested on: dogs; test: Physical conditioning of dogs (treadmill exercise, chronic oral dosing); type: in vivo
Source text: In a typical experiment, a group of ten dogs were implanted with miniature pressure transducers in their left ventricle so that measurements of heart rate, systolic pressure and the derivative of left ventricular pressure (the index of cardiac contractility) could be made. The dogs were trained to walk on a treadmill. Five of the dogs were randomly selected to receive a compound of this invention, for instance R,R-N-[2-(4-hydroxyphenyl)-2-hydroxyethyl]-1-methyl-3-(4-hydroxyphenyl)propylaminium chloride. The test animals received saline filled capsules during the first week of the test. During the second and third weeks, the dogs received the test compound orally at a dose of 10 mcg./kg. twice each day. The dosage was increased to 40 mcg./kg. twice each day for the fourth week, and increased to 60 mcg./kg. twice each day through weeks five to eleven. The other five dogs received saline filled capsules throughout the study. Once each week, the animals' response to exercise on . the treadmill was evaluated. Resting data were obtained by permitting the dogs to lie on the treadmill before turning it on. The treadmill then was run at a speed of 3.5 kilometers/hr., with the dogs walking at this speed with no elevation for 5 min., and then for 5 min. at a 20% incline. During the eleventh week of such test, the dogs were made to walk on a 40% incline, thus providing sufficient stress to increase plasma lactic acid and catecholamines. Blood samples prior to each exercise and within two minutes of completing the exercise were taken from the jugular vein.
After several weeks, the dogs were anesthetized and measurements of ventricular function and skeletal muscle blood flow and enzymes were made.

[3] = Canis lupus familiaris, dogs, dose giving a 50% increase in contractile force (derivative of left ventricular pressure)

Compound	ED50 [1, 3]	Blood Pressure Change mm/hg at ED50 ([1]; dogs)	Heart rate Change beats/min. at ED50 ([1]; dogs)	further results
C[C@H](CCc1ccc(C(N)=O)cc1)NC[C@H](O)c1ccccc1 [R,R-N-(2-Phenyl-2-hydroxyethyl)-l-methyl-3-(4-aminocarbonylphenyl)propylamine]	7 µg/kg	+3 mm/hg	15 beats/min.	
C[C@H](CCc1ccc(O)cc1)NC[C@H](O)c1ccccc1 [R,R-N-(2-phenyl-2-hydroxyethyl)-1-methyl-3-(4-hydroxyphenyl)propylamine]	6 µg/kg	-13 mm/hg	15 beats/min.	
C[C@H](CCc1ccc(O)cc1)NC[C@H](O)c1ccc(O)cc1.Cl [R,R-N-[2-(4-Hydroxyphenyl)-2-hydroxyethyl]-1-methyl-3-(4-hydroxyphenyl)propylaminium chloride]				Skeletal Muscle Blood Flow (ml./min./100 g.) ([2]; conditioned dogs, anesthetized after several weeks, p<0.01): 2.5 ml./min./100 g.; Heart Rate (beats/min.) at rest ([2]; conditioned dogs, at rest, p<0.01): 55 beats/min.; Heart Rate (beats/min.) at 20° walk ([2]; conditioned dogs, treadmill walk at 20°, p<0.01): 150 beats/min.; Blood Lactic Acid (mg.%) at rest ([2]; dogs, oral 10 then 40 then 60 mcg./kg. twice each day over eleven weeks, at rest, p<0.01 printed for lactic acid): 5.2 mg.%; Plasma Norepinephrine (picograms/ml.) at rest ([2]; dogs, oral 10 then 40 then 60 mcg./kg. twice each day over eleven weeks, at rest, p<0.05 printed for norepinephrine): 235 picograms/ml.; Blood Lactic Acid (mg.%) during exercise ([2]; dogs, oral 10 then 40 then 60 mcg./kg. twice each day over eleven weeks, during treadmill exercise, p<0.01 printed for lactic acid): 6.3 mg.%; Plasma Norepinephrine (picograms/ml.) during exercise ([2]; dogs, oral 10 then 40 then 60 mcg./kg. twice each day over eleven weeks, during treadmill exercise, p<0.05 printed for norepinephrine): 200 picograms/ml.; Succinic Dehydrogenase Activity (µM/mgP/min.) ([2]; skeletal muscle of conditioned dogs, p<0.01): 3.3 µM/mgP/min.
C[C@H](CCc1ccc(O)cc1)NC[C@H](O)c1ccc(O)cc1 [R,R-N-[2-(4-hydroxyphenyl)-2-hydroxyethyl]-1-methyl-3-(4-hydroxyphenyl)propylamine]		-5 mm/hg	15 beats/min.	ED50 ([1]; Canis lupus familiaris): 0.32 µg/kg
C[C@@H](CCc1ccc(C(N)=O)cc1)NC[C@H](O)c1ccccc1 [R,S-N-(2-phenyl-2-hydroxyethyl)-1-methyl-3-(4-aminocarbonylphenyl)propylamine, reference compound]				ED (max) ([1]; Canis lupus familiaris, dogs, EDmax: a 50% increase in contractile force could not be achieved, dose giving the maximal increase, read-out: Cardiac Contractile Potency mcg/kg (EDmax)): 1980 µg/kg; Blood Pressure Change mm/hg (EDmax) ([1]; dogs, at EDmax dose): -30 (EDmax) mm/hg; Heart rate Change beats/min. (EDmax) ([1]; dogs, at EDmax dose): 24 (EDmax) beats/min.
C[C@@H](CCc1ccc(O)cc1)NC[C@H](O)c1ccc(O)cc1 [R,S-N-[2-(4-hydroxyphenyl)-2-hydroxyethyl]-1-methyl-3-(4-hydroxyphenyl)propylamine, reference compound]		-2 mm/hg	15 beats/min.	ED50 ([1]; Canis lupus familiaris): 11 µg/kg
C[C@@H](CCc1ccc(O)cc1)NC[C@H](O)c1ccccc1 [R,S-N-[2-phenyl-2-hydroxyethyl)-1-methyl-3-(4-hydroxyphenyl)propylamine, reference compound]	350 µg/kg	-20 mm/hg	18 beats/min.	
